We go through 1 compound from patent US10639251B2, “Method for inhibiting or masking fishy odours” (Symrise AG, priority 2015, dated 2020).

One assay concerns the target T1, murine TAAR5 (Mus musculus, UniProt Q5QD14).
T1 construct: expressed in transfected cells; host or cells: HANA3A cells
T1 sequence (Q5QD14 1-337): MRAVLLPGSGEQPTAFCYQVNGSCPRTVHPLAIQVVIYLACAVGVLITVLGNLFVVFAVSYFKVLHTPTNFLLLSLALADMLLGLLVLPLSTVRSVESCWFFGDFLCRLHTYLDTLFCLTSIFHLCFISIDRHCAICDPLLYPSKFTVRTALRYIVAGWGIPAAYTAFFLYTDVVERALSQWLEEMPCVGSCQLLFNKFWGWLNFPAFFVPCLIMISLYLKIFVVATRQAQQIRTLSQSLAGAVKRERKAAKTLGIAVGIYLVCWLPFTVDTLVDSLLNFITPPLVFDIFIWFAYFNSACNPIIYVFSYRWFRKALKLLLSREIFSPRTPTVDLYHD
Put plainly: Cre-luciferase assay, murine TAAR5 responses to TMA. The class given is cell-based. Conditions: Timberol 100 μM.

In the next assay the test system is intracellular cAMP. Put plainly: Control experiments: intracellular cAMP level in hTAAR5-transfected HANA3A cells (basal and forskolin-stimulated). It is filed as cell-based, human. As to the method: In order to identify suitable antagonist for TMA the protocol of Zhuang and Matsunami for measuring receptor activity with the Dual-Glo Luciferase Assay System (Promega) was adapted [see Nat. Protoc. 3(9), p. 1402-1413 (2008)]. HANA3A cells were maintained under standard conditions in DMEM supplemented with 10% FBS and 100 units/ml penicillin and streptomycin at 37° C. Cells (approximately 15,000 cells/well) were plated on poly-D-lysine-coated 96-well plates (NUNC) and transfected after 24 h with the FuGENE® HD (Promega) transfection reagent according to the manufacturer's protocol. In a 96-well plate, we placed 18 μl transfection reagent, 1-5 μg receptor plasmid, 2 μg pGL4-luciferase reporter, 1 μg pRL-TK-Renilla reporter, 0.5 μg G-protein αolf, 1 μg receptor transport protein (RTP1S) and 1 μg M3 muscarinic acetylcholine receptor (for hOR51E1) to ensure cell surface expression. Cells were stimulated 24 h after transfection for 4 h at 37° C. with test substances diluted in CD 293 medium (1×) (Life Technologies) with 2 mM L-glutamine (Life Technologies) added. After stimulation with test substances, recombinant hTAAR5 activation elevated cAMP and the subsequent expression of the cAMP-dependent reporter gene construct Cre-luciferase. Expression rates of Cre-luciferase were monitored by luminescent enzymatic reactivity. Thus, luminescence signals correlate with receptor activation. […]

In another assay the test system is panelists. Put plainly: Olfactory detection threshold of TMA, 3-alternative forced-choice, ISO 13301. It is filed as in vivo, human. As to the method: In addition, olfactory detection thresholds were assessed in aqueous solutions using a best estimate threshold approach as described in ISO 13301. In brief, samples containing different concentrations of analyte were presented in ascending order in a 3-alternative forced-choice design. Each concentration set consisted of three samples with one deviating sample containing a defined amount of trimethylamine. Samples were presented in amber vials (30 ml) coded with three digits and filled with 10 ml of solution, and panelists were required to designate the sample that differed from the others.
Thresholds of TMA were measured in buffered aqueous solution i) without additive ii) with 1% (m/m) Timberol® and iii) with 0.1% Mugetanol (isointense to 1% Timberol®). These experiments were performed separately on different days with the same panelists. In the case of testing in the presence of fragrance components (Timberol® or Mugetanol), all three samples of a given concentration set contained the same amount of fragrance components and differed only in the presence/absence of TMA. In each session, a total of 10 concentration sets ranging from […] to 1.00×10^−5% (m/m) TMA were evaluated. The concentration doubled in each step.
The aqueous solutions were buffered with TRIS (50 mM), and the pH was adjusted to 9 to have approximately 13% of the TMA in a deprotonated and thus volatile form. Furthermore, an odorless emulsifier was added to a final concentration of 3% (m/m) to dissolve Timberol®.
In a second step, the influence of Timberol® on the perception of TMA was investigated using a psychophysical approach. Therefore the detection thresholds of TMA alone and in the presence of suprathreshold concentrations of Timberol® were tested. Threshold measurements were performed in a 3-alternative forced-choice design according to ISO 13301. A total of 10 concentrations (binary dilution steps) ranging from […] to 1.00×10^−5% (m/m) TMA were examined.

Entries after “also recorded” stand apart in the source; their conditions may differ.

On to `CCCC(O)CCC1C(C)CCCC1(C)C` (stereo not drawn) [Timberol®, Norlimbanol], for which, at murine TAAR5 (1 μM TMA), the “blocking effect on murine TAAR5” value is 34%±2%. In addition, the “inhibition of mTAAR5-mediated responses to TMA” value against murine TAAR5 is on record as “able to block; also recorded: inhibits”. Moreover, the “basal cAMP production” value in the assay with intracellular cAMP (Timberol (100 μM) alone vs unstimulated controls) is given as “No significant reduction; also recorded: did not affect”. The “cAMP levels after forskolin” value in the assay on intracellular cAMP (Timberol (100 μM) mixed with 10 μM forskolin vs forskolin alone) was “no significant difference; also recorded: did not affect”. For the same compound, the “influence of additive on TMA detection threshold / perception” value in the assay on panelists (1% Timberol or 0.1% Mugetanol (isointense)) is recorded as “abolished the ability to perceive TMA around perithreshold concentrations; also recorded: shifted to a significantly higher concentration”. For the same compound, in the assay on panelists (of the 27 tested subjects), the “subjects less sensitive to TMA in the presence of Timberol” value came out at 23.
